EC50 data for two compounds are collected here from ChEMBL document CHEMBL3352674, “Pyrazolsulfonamide agonists of oxytocin receptor” (ACS Med Chem Lett, 2014).

Structures are written as SMILES.

In this assay the target is T1, Oxytocin receptor (Homo sapiens, UniProt P30559).
T1 sequence (P30559 whole entry): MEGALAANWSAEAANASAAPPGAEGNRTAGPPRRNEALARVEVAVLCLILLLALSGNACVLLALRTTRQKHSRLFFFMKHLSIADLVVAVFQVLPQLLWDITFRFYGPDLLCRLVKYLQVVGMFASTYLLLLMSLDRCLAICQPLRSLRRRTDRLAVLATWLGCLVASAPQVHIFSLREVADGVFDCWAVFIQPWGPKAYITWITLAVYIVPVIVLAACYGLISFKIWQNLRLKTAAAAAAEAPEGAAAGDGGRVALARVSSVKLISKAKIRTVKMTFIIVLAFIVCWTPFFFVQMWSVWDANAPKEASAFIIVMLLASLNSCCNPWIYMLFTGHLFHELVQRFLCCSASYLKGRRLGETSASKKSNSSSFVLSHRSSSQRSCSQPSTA
Briefly: Agonist activity at human oxytocin receptor expressed CHO cells assessed as calcium flux by FLIPR method. Format: functional, cell-based. Background: A change in cytosolic calcium serves as a functional read-out for many receptors and channels.

Take `O=S(=O)(Nc1ccnn1-c1ncc(C(F)(F)F)cn1)c1ccc(C(F)(F)F)cc1`: the EC50 was 1570 nM.
On to `O=S(=O)(Nc1ccnn1-c1ccccn1)c1ccc(Cl)cc1F`, for which the concentration giving a half-maximal response (EC50) is 19 nM.

What is called EC50 is the concentration that produces a half-maximal response.
